Several values for one entry are separate records, joined by “and”; a condition that tells them apart may be missing. Identical values can stand only once. Like-named read-outs stand apart in the source and are kept apart here.
Assays:
[1] = tested on: Phytophthora infestans; assay type: in vivo; parameters: scale not given here; conditions: Tomato Late Blight, five days
[2] = tested on: Stemphylium sarcinaeforme; assay: Agar dilution plate; assay type: cell-based; conditions: Ss; 100 ppm, 72 hours at 23° C
Method: (§1) Test compounds were incorporated in a Sabouraud's dextrose agar in an amount sufficient to provide the active ingredient in a concentration of about 100 ppm. A twenty-ml. sample of the agar mixture is placed in a petri dish and permitted to solidify. An agar sample is inoculated with the test organism set forth below and then covered and incubated for a period of about 72 hours at 23° C. After incubation, growth observations are made. The test results are recorded and the test is repeated twice for the purpose of comparison.
(§2) The data obtained with a variety of test organisms is shown in the table below, and ratings are shown as 0 or 5. O indicates no control, 5 indicates 100% effectiveness of the test compound against the specified organism.
Ss= Stemphylium sarcinaeforme

[3] = tested on: Verticillium albo-atrum; assay: Agar dilution plate; assay type: cell-based; conditions: Va; 100 ppm, 72 hours at 23° C
Method: as §1, §2
Va= Verticillium albo-atrum

[4] = tested on: Piricularia oryzae; assay type: in vivo; parameters: scale not given here; conditions: Rice Blast, five days
[5] = tested on: Collectotrichum lagenarium; assay: Agar dilution plate; assay type: cell-based; conditions: Cl; 100 ppm, 72 hours at 23° C
Method: as §1, §2
Cl= Collectotrichum lagenarium

[6] = tested on: Aspergillus niger; assay: Agar dilution plate; assay type: cell-based; conditions: An; 100 ppm, 72 hours at 23° C
Method: as §1, §2

[7] = tested on: Monilinia fructicola; assay: Agar dilution plate; assay type: cell-based; conditions: Mf; 100 ppm, 72 hours at 23° C
Method: as §1, §2

[8] = tested on: Pythium de Baryanum; assay: Agar dilution plate; assay type: cell-based; conditions: Pd; 100 ppm, 72 hours at 23° C
Method: as §1, §2

[9] = tested on: Rhizoctonia solani; assay: Agar dilution plate; assay type: cell-based; conditions: Rs; 100 ppm, 72 hours at 23° C
Method: as §1, §2

[10] = tested on: Fusarium lycopersici; assay: Agar dilution plate; assay type: cell-based; conditions: Fl; 100 ppm, 72 hours at 23° C
Method: as §1, §2

[11] = tested on: Pseudomonas solaracaerum; assay type: cell-based; conditions: 100 ppm, 72 hours at 23° C
[12] = tested on: Aspergillus niger; assay: Spore germination inhibition; assay type: cell-based; conditions: 24 hours
Description: (§3) The test procedure involves the preparation of a 100, 10 or 1 ppm. suspension of test compound in water. The solutions are placed in one dram "opticlear" vials and separately inoculated with one drop of a spore suspension prepared from seven-day cultures of Aspergillus niger and 14-day old cultures of Monilinia fructicola and Stemphylium sarcinaeforme,all grown on potato-dextrose agar. The vials containing the separately inoculated solutions of test compounds are then capped and placed on a rotating tumbler for 24 hours to assure contact of the organism with the test compound. After 24 hours, the vials are removed and examined for inhibition of […].

[13] = tested on: Monilinia fructicola; assay: Spore germination inhibition; assay type: cell-based; conditions: for inhibition at 1 ppm / inhibition at 10 ppm: 24 hours; for inhibition at 100 ppm: 24 h, read-out: % Inhibition of Spore Germination
Description: as §3

[14] = tested on: Stemphylium sarcinaeforme; assay: Spore germination inhibition; assay type: cell-based; conditions: Stemphylium sarciniforme; for inhibition at 100 ppm: 24 h, read-out: % Inhibition of Spore Germination; for inhibition at 1 ppm / inhibition at 10 ppm: 24 hours
Description: as §3

[15] = tested on: Venturia inaequalis; conditions: in vivo; also: key: 5: clean, no disease; 4: trace of disease; 3: slight disease; 2: moderate disease; 1: severe disease; 0: like controls

| SMILES | disease control index ([1]; at 500 ppm) | Agar Dilution Plate rating [2] | Agar Dilution Plate rating [3] | disease control index ([4]; at 75 ppm) | disease control index ([4]; at 500 ppm) | Agar Dilution Plate rating [5] | Agar Dilution Plate rating [6] | Agar Dilution Plate rating [7] | Agar Dilution Plate rating [8] | Agar Dilution Plate rating [9] | Agar Dilution Plate rating [10] | Agar Dilution Plate rating [11] | inhibition at 1 ppm [12] [%] | inhibition at 10 ppm [12] [%] | disease control index ([1]; 150 ppm) | disease control index ([1]; 300 ppm) | disease control index [15] | disease control index ([4]; 300 ppm) | disease control index ([1]; 600 ppm) | disease control index ([1]; 1200 ppm) | also measured |
| --- | --- | --- | --- | --- | --- | --- | --- | --- | --- | --- | --- | --- | --- | --- | --- | --- | --- | --- | --- | --- | --- |
| CN(C)C(=S)SC(C[N+](=O)[O-])c1ccc(Cl)s1 (stereo not drawn) [Example 34, 5-Chloro-α-(nitromethyl)-2-thenyl Dimethyldithiocarbamate] | 3 | 0 | 0 | 1 | 3 | 5 (100% effectiveness of the test compound against the specified organism) | 0 | 0 | 0 | 5 (100% effectiveness of the test compound against the specified organism) | 0 | 0 | 0 | 100 | – | – | – | – | – | – | inhibition at 100 ppm [12]: 100%; inhibition at 1 ppm [13]: 0%; inhibition at 10 ppm [13]: 100%; inhibition at 100 ppm [13]: 100%; inhibition at 100 ppm [14]: 100%; inhibition at 1 ppm [14]: 0%; inhibition at 10 ppm [14]: 100% |
| CN(C)CC1(CSC(=S)N(C)C)SC(=S)NC1=O (stereo not shown) [Example 12, Dimethyldithiocarbamic Acid S-Ester with 5-(Dimethylaminomethy)-5-(mercaptomethyl)rhodanine] | – | – | – | – | – | – | – | – | – | – | – | – | – | – | 5 | 5 | 5 | 5 | – | – | – |
| CN(C)C(=S)SC(C[N+](=O)[O-])c1ccco1 (stereo not drawn) [Example 32, α-(Nitromethyl)furfuryl Dimethyldithiocarbamate] | – | – | – | – | – | – | – | – | – | – | – | – | – | – | 4 | 4 | 5 and 0 | 0 | 5 | 5 | disease control index ([4]; 150 ppm): 0; disease control index ([4]; 600 ppm): 5; disease control index ([4]; 1200 ppm): 5 |
| CCN(CC)C(=S)SC(C[N+](=O)[O-])c1ccccc1 (stereo not drawn) [Example 19, α-(Nitromethyl)benzyl Diethyldithiocarbamate] | – | 0 | 0 | – | – | 0 | 0 | 5 (100% effectiveness of the test compound against the specified organism) | 0 | 0 | 0 | 0 | – | – | 3 | 3 | 5 and 0 | 3 | 3 | 3 | disease control index ([4]; 150 ppm): 3; disease control index ([4]; 600 ppm): 5; disease control index ([4]; 1200 ppm): 5 |
| CCN(CC)C(=S)SCC(CSC(=S)N(CC)CC)[N+](=O)[O-] [Example 2, 2-Nitrotrimethylene Diethyldithiocarbamate] | – | 0 | 0 | – | – | 5 (100% effectiveness of the test compound against the specified organism) | 0 | 0 | 0 | 0 | 0 | 0 | – | – | 4 | 4 | 5 | 4 | 5 | 5 | disease control index ([4]; 150 ppm): 4; disease control index ([4]; 600 ppm): 5; disease control index ([4]; 1200 ppm): 5 |
| COc1cccc(C(C[N+](=O)[O-])SC(=S)N(C)C)c1OC(C)=O (stereo not drawn) [Example 21, 2-Acetoxy-3-methoxy-α-(nitromethyl)benzyl Dimethyldithiocarbamate] | 5 | – | – | 3 | 4 | – | – | – | – | – | – | – | – | – | – | – | 4 | – | – | – | – |
| CN(C)C(=S)SC(C[N+](=O)[O-])c1ccc(C(C[N+](=O)[O-])SC(=S)N(C)C)cc1 (stereo not drawn) [Example 20, α,α'-Bis(nitromethyl)-p-phenylenedimethylene Dimethyldithiocarbamate] | – | – | – | – | – | – | – | – | – | – | – | – | – | – | 3 | 3 | – | – | 4 | 5 | – |
| CN(C)C(=S)SC(C[N+](=O)[O-])c1cc([N+](=O)[O-])ccc1Cl (stereo not drawn) [Example 23, 2-Chloro-5-nitro-α-(nitromethyl)benzyl Dimethyldithiocarbamate] | 5 | – | – | 3 | 4 | – | – | – | – | – | – | – | – | – | – | – | 4 | – | – | – | disease control index ([1]; at 100 ppm): 5 |
| CN(C)C(=S)SC(C[N+](=O)[O-])c1cccc2ccccc12 (stereo not shown) [Example 31, 1-Naphthyl-2-nitroethyl Dimethyldithiocarbamate] | 5 | 5 (100% effectiveness of the test compound against the specified organism) | 5 (100% effectiveness of the test compound against the specified organism) | 4 | 5 | 5 (100% effectiveness of the test compound against the specified organism) | 0 | 5 (100% effectiveness of the test compound against the specified organism) | 5 (100% effectiveness of the test compound against the specified organism) | 5 (100% effectiveness of the test compound against the specified organism) | 0 | 0 | 0 | 0 | – | – | 4 | – | – | – | disease control index ([1]; at 100 ppm): 5; inhibition at 100 ppm [12]: 100%; inhibition at 1 ppm [13]: 0%; inhibition at 10 ppm [13]: 0%; inhibition at 100 ppm [13]: 100%; inhibition at 100 ppm [14]: 100%; inhibition at 1 ppm [14]: 0%; inhibition at 10 ppm [14]: 0% |
| COc1ccc(C(C[N+](=O)[O-])SC(=S)N(C)C)cc1 (stereo not drawn) [Example 29, p-Methoxy-α-(nitromethyl)benzyl Dimethyldithiocarbamate] | – | – | – | – | – | – | – | – | – | – | – | – | 0 | 0 | 5 | 5 | 5 | 5 | 5 | 5 | disease control index ([4]; 150 ppm): 4; disease control index ([4]; 600 ppm): 5; disease control index ([4]; 1200 ppm): 5; inhibition at 100 ppm [12]: 100%; inhibition at 1 ppm [13]: 0%; inhibition at 10 ppm [13]: 100%; inhibition at 100 ppm [13]: 100%; inhibition at 100 ppm [14]: 100%; inhibition at 1 ppm [14]: 0%; inhibition at 10 ppm [14]: 100% |
| CC(=O)Oc1ccc(C(C[N+](=O)[O-])SC(=S)N(C)C)cc1 (stereo not drawn) [Example 24, 4-Acetoxy-α-(nitromethyl)benzyl Dimethyldithiocarbamate] | 5 | 5 (100% effectiveness of the test compound against the specified organism) | 5 (100% effectiveness of the test compound against the specified organism) | 3 | 4 | 5 (100% effectiveness of the test compound against the specified organism) | 0 | 5 (100% effectiveness of the test compound against the specified organism) | 0 | 0 | 0 | 0 | 0 | 100 | – | – | 5 | – | – | – | disease control index ([1]; at 100 ppm): 3; inhibition at 100 ppm [12]: 100%; inhibition at 1 ppm [13]: 0%; inhibition at 10 ppm [13]: 100%; inhibition at 100 ppm [13]: 100%; inhibition at 100 ppm [14]: 0% |
